Patent publication US8158165B2, “Preventative treatment and remission of allergic diseases” (CSIR, priority 2006, dated 2012)
Values joined by “and” are separate entries in the source; they are usually repeats but may differ in a detail not shown here. Identical values can stand only once.

Assays:
[1] = tested on: Ovalbumin-induced bronchoconstriction; conditions: assay protocol reference data; cited from earlier work
[2] = tested on: Ovalbumin-induced bronchoconstriction; assay: Pulmonary, Antigen/Lipoxygenase Metabolites, in Guinea Pigs (intratracheal pressure); type: in vivo, guinea pig
Method: Assays were performed at MDS Pharma in Taiwan and reference standards used as an integral part of each assay to ensure the validity of the results obtained. The biological assay employed was the Pulmonary, Antigen/Lipoxygenase Metabolites assay and the diethyl ether extract of Siphonochilus aethiopicus was evaluated for possible activity in this in vivo assay.
WG-I-101 was suspended in 0.5% CMC/0.1% Tween 80. The test substance at a dose of 500 mg/kg was given orally twice daily for 3 consecutive days and an additional final dose was added at one hour before challenge of Ovalbuminon testing day. Dosing volume of 10 ml/kg was used. The formulation is summarized as follows: […]
Groups of 5 Dunkin-Hartley derived male guinea pigs weighing 400±50 g (final day) were employed. The animals were anesthetized with pentobarbital sodium (50 mg/kg IP, with an additional 15 mg/kg IP if needed). An aluminum plate kept at 37° C. through water flow from a bath was placed beneath the test animals to maintain body temperature. The trachea was cannulated and a rodent ventilator (Harvard, USA) was used for artificial ventilation (10 ml/kg, 50 breaths/minute). Through a side-arm of the cannula, intratracheal pressure (ITP) was measured using a Pneumatic pulse transducer (Narco Biosystem, USA). A carotid artery was cannulated (PE50, Clay Adams, USA) for measurements of blood pressure using a Stathem P23×L transducer (Viggo-Spectramed, USA) and heart rate was obtained from lead II ECG. Guinea pigs were sensitized with IP injections of ovalbumin (0.5 μg/0.5 ml/animal) and Al (OH)3 (1 mg/0.5 ml/animal) on days 1 and 8. The animals were then challenged with 15 μg/kg of Ovalbumin (IV) between days 19 and 23 and bronchopulmonary constriction was recorded as an increase in ITP.
(§1) The test substance at 500 mg/kg was administered orally twice daily for 3 consecutive days and an additional final dose was added on testing day, then, one hour after final dose, the animals were injected intravenously (1 ml/kg) with a “cocktail”: Indomethacin (10 mg/kg), Mepyramine (2 mg/kg), and Propranolol (100 μg/kg), followed by challenge with ovalbumin 5 minutes later. […] Bronchoalveolar lavage fluid was retrieved after instilling 5 ml of phosphate buffered saline for 2 times. TNF-α, IL-1β and IL-8 in bronchoalveolar lavage fluid (BALF) supernatants were measured with ELISA after ovalbumin challenge. One-way ANOVA followed by Dunnett's Test was applied for comparison between the vehicle control and test compound-treated groups. P<0.05 is considered significant.
Anesthetized and artificially ventilated guinea pigs previously sensitized were pretreated with Mepyramine 2 mg/kg, Indomethacin 10 mg/kg and Propranol 0.1 mg/kg for 5 minutes; arterial blood pressure (BP, mm Hg), heart rate (HR, beats/min.) and tracheal pressure (TP, cm H2O) were recorded after oral dosing for 3 days. At the end of chronic dosing, antigen (Ovalbumin 15 μg/kg IV)-induced increase in tracheal pressure (ITP) above an initial baseline of 6 cm H2O was then recorded as an indication of bronchoconstriction. Percent (%) inhibition is calculated according to the formula of [Increase in Tracheal Pressure (vehicle-treated)]−[Increase in Tracheal Pressure (test substance-treated)/[Increase in Tracheal Pressure (vehicle-treated)]×100%. • 1. ΔITP: Changes in ITP over corresponding baseline values; (−) Oval: Response to vehicle or test substance alone and before Ovalbumin challenge; (+) Oval: Changes in response to Ovalbumin challenge. • 2. % Control: ITP response to test substance, vehicle expressed in terms of percentage of the ITP response to Ovalbumin (15 μg/kg IV) in the vehicle-treated control (100%). • 3. […]
The trachea is cannulated and the guinea pig ventilated with a Harvard rodent respirator in a closed system. Tracheal pressure is recorded through a side-arm of the cannula connected to a P23ID Statham transducer. […]

TNF-α = TNF-α in bronchoalveolar lavage fluid after ovalbumin challenge (ELISA); type: in vivo, guinea pig; conditions: BALF, WG-1-101 500 mg/kg PO, Phenidone 30 mg/kg IV
Method: as §1
(§2) Bronchoalveolar lavage fluid (BALF) samples in the WG-I-101-treated group were prepared for measurements of TNF-α, IL-1β and IL-8 after ovalbumin challenge. One-way ANOVA followed by Dunnett's test was applied for comparison between the vehicle control and test compound-treated groups. P<0.05 is considered significant.
(§3) Bronchoalveolar lavage fluid (BALF) samples in the WG-I-101 treated group were prepared for measurements of TNF-α, IL-1β and IL-8 after Ovalbumin challenge. TNF-α, IL-1β and IL-8 levels of each sample were assessed using TNF-α, IL-1β and IL-8 ELISA kits, respectively. […]

IL-1β = IL-1β in bronchoalveolar lavage fluid after ovalbumin challenge (ELISA); type: in vivo, guinea pig; conditions: BALF, WG-1-101 500 mg/kg PO, Phenidone 30 mg/kg IV
Method: as §1, §2, §3

IL-8 = IL-8 in bronchoalveolar lavage fluid after ovalbumin challenge (ELISA); type: in vivo, guinea pig; conditions: BALF, WG-1-101 500 mg/kg PO, Phenidone 30 mg/kg IV
Method: as §1, §2, §3

CN1[C@@H]2CC[C@H]1C[C@@H](OC(=O)C(CO)c1ccccc1)C2 (stereo partly drawn) [Atropine]
MED mg/kg i.v. [1]: >10 mg/kg

O=C(O)c1cc(=O)c2c(OCC(O)COc3cccc4oc(C(=O)O)cc(=O)c34)cccc2o1 [Cromolyn Sodium]
MED mg/kg i.v. [1]: >100 mg/kg

CCCc1c(OCCCCc2nnn[nH]2)ccc(C(C)=O)c1O [LY-171883, 1[2-hyroxy-3-propyl-4-[4-(1H-tetrazol-5-yl)butoxy]phenyl]ethanone]
MED mg/kg i.v. [1]: 30 mg/kg

CC(Cc1ccc(O)c(O)c1)C(C)Cc1ccc(O)c(O)c1 (stereo not drawn) [NDGA, nordihydroguaretic acid]
MED mg/kg i.v. [1]: 10 mg/kg

O=C1CCN(c2ccccc2)N1 [Phenidone]
% Control ([2]; ITP response to test substance as % of Ovalbumin response in vehicle control): 0% | ΔITP (cm H2O) (+) Oval, X ± SEM ([2]; group mean of 5, response to Ovalbumin 15 μg/kg IV, WG-1-101 500 mg/kg PO bidx3 & qdx1, Phenidone 30 mg/kg IV qdx1): 1.8 ± 0.8 cm H2O | ΔITP (cm H2O) (−) Oval, X ± SEM ([2]; group mean, before Ovalbumin challenge, WG-1-101 500 mg/kg PO bidx3 & qdx1, Phenidone 30 mg/kg IV qdx1): 0 cm H2O | ΔITP (cm H2O) (−) Oval ([2]; individual animals N 1-5, before Ovalbumin challenge, WG-1-101 500 mg/kg PO bidx3 & qdx1, Phenidone 30 mg/kg IV qdx1): 0 cm H2O | ΔITP (cm H2O) (+) Oval ([2]; individual animals N 1-5, response to Ovalbumin 15 μg/kg IV, WG-1-101 500 mg/kg PO bidx3 & qdx1, Phenidone 30 mg/kg IV qdx1): 4.8 cm H2O and 1.8 cm H2O and 1.2 cm H2O and 0.6 cm H2O (2×) | % Inhibition of Ovalbumin-induced bronchoconstriction ([2]; relative to vehicle-treated control, WG-1-101 500 mg/kg PO bidx3 & qdx1, Phenidone 30 mg/kg IV qdx1): (89) % | TNF-α (pg/ml), X (TNF-α; group mean): 7.62 pg/mL | TNF-α (TNF-α; individual animals N 1-5): 12.03 pg/mL and 7.0 pg/mL and 3.79 pg/mL and 8.96 pg/mL and 6.33 pg/mL | IL-1β (pg/ml), X (IL-1β; group mean): 1.21 pg/mL | IL-1β (IL-1β; individual animals N 1-5): 3.10 pg/mL and 0.24 pg/mL and 0.46 pg/mL and 2.25 pg/mL and 0.00 pg/mL | IL-8 Cont(pg/ml), X (IL-8; group mean, * P<0.05 vs vehicle): 0.97* pg/ml | IL-8 Cont(pg/ml) (IL-8; individual animals N 1-5): 3.63 pg/ml and 1.22 pg/ml and 0.00 pg/ml (3×) | MED mg/kg i.v. [1]: 30 mg/kg

CC(C)(C)NCC(O)c1ccc(O)c(CO)c1 (stereo not drawn) [Salbutamol]
MED mg/kg i.v. [1]: 0.1 mg/kg
